The results in this text go back to ChEMBL document CHEMBL1139537, “Examination of phosphoryl-mimicking functionalities within a macrocyclic Grb2 SH2 domain-binding platform” (J Med Chem, 2005).

In assay [1] the target is T1, Growth factor receptor-bound protein 2 (Homo sapiens, UniProt P62993). As to the kind of experiment: Inhibitory concentration against growth factor receptor bound protein 2.
Target sequence in this assay (P62993 whole entry): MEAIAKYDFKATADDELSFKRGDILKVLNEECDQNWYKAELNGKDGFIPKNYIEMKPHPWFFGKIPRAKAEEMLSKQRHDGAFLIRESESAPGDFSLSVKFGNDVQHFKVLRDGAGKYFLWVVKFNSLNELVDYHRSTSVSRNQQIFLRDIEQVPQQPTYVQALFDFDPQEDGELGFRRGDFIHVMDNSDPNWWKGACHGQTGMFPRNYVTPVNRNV
For assay [2], the target named is T1, Growth factor receptor-bound protein 2. As to the kind of experiment: Dissociation constant value against growth factor receptor bound protein 2.
Target sequence in this assay (P62993 whole entry): as above
For assay [3] the target is unchanged. Briefly: Binding on-rate against growth factor receptor bound protein 2.
Target sequence in this assay (P62993 whole entry, looked up): as the sequence (P62993 whole entry) above
The target is the same in assay [4]. Briefly: Binding off-rate against growth factor receptor bound protein 2.
Target sequence in this assay (P62993 whole entry): as above

Usually IC50 stands for the midpoint of a concentration-inhibition curve. Lower therefore signals higher potency. The Kd is the free concentration of one partner at which half of the binding sites on the other are occupied at equilibrium, for simple one-to-one binding. Low readings indicate a tighter complex, high ones a looser complex. In general, koff refers to the rate constant with which the complex falls apart. Low values mean slow dissociation, high ones fast dissociation. For the compound `Cc1ccc2c(ccn2C[C@@H]2C/C=C/[C@H](c3ccc(CP(=O)(O)O)cc3)[C@H](CC(=O)O)C(=O)NC3(CCCCC3)C(=O)N[C@@H](CC(N)=O)C(=O)NC2)c1`, half-maximal inhibition in assay [1] (IC50) was put at 15 nM. The compound further displayed a Kd in assay [2] of 1.47 nM. Moreover, in assay [3], the Ka came to 5.46e+06 M⁻¹ s⁻¹. In assay [4], the koff was determined as 0.00801 s⁻¹.

In assay [1], `Cc1ccc2c(ccn2C[C@@H]2C/C=C/[C@H](c3ccc(CP(=O)(O)Cc4ccccc4)cc3)[C@H](CC(=O)O)C(=O)NC3(CCCCC3)C(=O)N[C@@H](CC(N)=O)C(=O)NC2)c1` displayed an IC50 of 8.4 nM. For the same compound, the Kd in assay [2] is 35.3 nM. This compound also had a koff in assay [4] of 0.00512 s⁻¹.

In the case of `Cc1ccc2c(ccn2C[C@@H]2C/C=C/[C@H](c3ccc(CC(=O)O)cc3)[C@H](CC(=O)O)C(=O)NC3(CCCCC3)C(=O)N[C@@H](CC(N)=O)C(=O)NC2)c1`, the IC50 in assay [1] stood at 22.5 nM. Besides, the Kd in assay [2] was 33 nM. This compound also gave a koff in assay [4] of 0.0101 s⁻¹.

As for `Cc1ccc2c(ccn2C[C@@H]2C/C=C/[C@H](c3ccc([N+](=O)[O-])cc3)[C@H](CC(=O)O)C(=O)NC3(CCCCC3)C(=O)N[C@@H](CC(N)=O)C(=O)NC2)c1`, the Kd in assay [2] was greater than 1000 nM.

Consider `Cc1ccc2c(ccn2C[C@@H]2C/C=C/[C@H](c3ccc(NC(=O)C(=O)O)cc3)[C@H](CC(=O)O)C(=O)NC3(CCCCC3)C(=O)N[C@@H](CC(N)=O)C(=O)NC2)c1`, for which half-maximal inhibition in assay [1] (IC50) required 8.8 nM. The compound further registered a Kd in assay [2] of 67 nM. Besides, in assay [4], the koff came to 0.0508 s⁻¹.

As to `Cc1ccc2c(ccn2C[C@@H]2C/C=C/[C@H](c3ccc(CP(C)(=O)O)cc3)[C@H](CC(=O)O)C(=O)NC3(CCCCC3)C(=O)N[C@@H](CC(N)=O)C(=O)NC2)c1`, in assay [1], the IC50 amounted to 6.3 nM. For the same compound, the affinity in assay [2], expressed as Kd, was 16.2 nM. In assay [4], this compound showed a koff of 0.00988 s⁻¹.

`Cc1ccc2c(ccn2C[C@@H]2C/C=C/[C@H](c3ccc(C(C(=O)O)C(=O)O)cc3)[C@H](CC(=O)O)C(=O)NC3(CCCCC3)C(=O)N[C@@H](CC(N)=O)C(=O)NC2)c1` had an IC50 in assay [1] of 3.3 nM. Further, the Kd in assay [2] was 3.62 nM. The compound further registered a koff in assay [4] of 0.0227 s⁻¹.

As for `Cc1ccc2c(ccn2C[C@@H]2C/C=C/[C@H](c3ccc(O)cc3)[C@H](CC(=O)O)C(=O)NC3(CCCCC3)C(=O)N[C@@H](CC(N)=O)C(=O)NC2)c1`, the Kd in assay [2] is greater than 1000 nM.
